This is an account of results in patent publication US20180236016A1, “NEUROTRANSMITTER AND BRAIN MODULATING ORAL DELIVERY SYSTEM FOR ENHANCEMENT OF COGNITIVE FUNCTIONS AND ENERGY” (Steady Nutrition LLC, priority 2017, published 2018).

For series [1] the following is noted: cited from earlier work.
The conditions of series [2]: in vivo; cited from earlier work.
Series [3] in a line: Sedimentation / precipitation of theobromine in the filled product. To be noted: in the emulsions of Example 3. The series is classed as physicochemical. The protocol:
2000 ml of conventional water based energy drink supplements were produced by blending all ingredients below, heating to 170 F and cooling to ambient temperature. About 30 ml of each composition were filled into HDPE plastic bottles. Example 1A contained 210 mg caffeine, 460 mg taurine, 120 mg N Acetyl L-Tyrosine, 300 mg glucuronolactone/30 ml serving. The water activity was 0.95; water content was 86% and pH of 2.90. […] Products were filled into 30 ml HDPE bottles and capped.
For each formulation, 1000 g batches were made. Milk fat and cocoa butter were weighted up and pre-blended at the specified amounts, then heated up to 130 F in a processing vessel. Water, mono and diglycerides, sugar, glycerin, cocoa powder and other optional ingredients were added Caffeine, theobromine, glucuronolactone, taurine and N acetyl L-tyrosine were mixed in. The admixture was heated up to 170-180 F for about 5 minutes and then cooled to 100 F. The water activity was adjusted to 0.85 or lower by the addition of glycerin. The entire admixture was homogenized at 1,000 psi for example 3A and at to 3,000 psi for example 3B and 3C. […] Water activity readings were 0.81, 0.82 and 0.72 for example 3A, 3B and 3C respectively. The pH readings were 5.8, 5.3 and 6.7 for example 3A, 3B and 3C respectively. Viscosity readings were 110, 170 and 250 centipoise for example 3A, 3B and 3C respectively.

Turning to Phosphatidylcholine, in series [1], the “fat / lipid solubility” value is on record as “only lipid soluble” and the water solubility entry is reported as “not water soluble”.

`Cn1c(=O)c2c(ncn2C)n(C)c1=O` [caffeine, reference compound]: the “impact is felt in” value in series [2] is 15 to 30 min.

For the molecule `Cn1cnc2c1c(=O)[nH]c(=O)n2C` [theobromine], the water solubility result in series [1] is “not water soluble”. Further, the half-life (in general, the time needed for the level to fall by half in the phase considered) in series [2] was 7 to 12 h. For the same molecule, in series [3], the precipitation of theobromine entry was “not precipitated”.

As to Phosphatidylserine [PS], in series [1], the “fat / lipid solubility” value is recorded as “only lipid soluble” and the water solubility entry was “not water soluble”.
